Results from PubChem BioAssay (NCI).
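Tested at 5 concentrations; 48 h exposure; 96-well plates; endpoints linearly interpolated, else capped at highest concentration. GI50 is the concentration that inhibits growth by half. TGI: total growth inhibition.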

Tests used:
Experiment in all cases: NCI anticancer screen, dose series, 48 h
HCT-15 colon = tested on: HCT-15 colon
SF-295 CNS = tested on: SF-295 CNS
SF-539 CNS = tested on: SF-539 CNS
OVCAR-3 ovarian = tested on: OVCAR-3 ovarian
OVCAR-8 ovarian = tested on: OVCAR-8 ovarian
NCI-H226 lung = tested on: NCI-H226 lung
UO-31 renal = tested on: UO-31 renal
RXF 393 renal = tested on: RXF 393 renal
COLO 205 colon = tested on: COLO 205 colon
TK-10 renal = tested on: TK-10 renal
U251 CNS = tested on: U251 CNS
ACHN renal = tested on: ACHN renal
NCI-H460 lung = tested on: NCI-H460 lung
NCI-H522 lung = tested on: NCI-H522 lung
NCI/ADR-RES ovarian = tested on: NCI/ADR-RES ovarian
HT29 colon = tested on: HT29 colon
SNB-75 CNS = tested on: SNB-75 CNS
SK-OV-3 ovarian = tested on: SK-OV-3 ovarian
SF-268 CNS = tested on: SF-268 CNS
UACC-62 melanoma = tested on: UACC-62 melanoma
CCRF-CEM leukemia = tested on: CCRF-CEM leukemia
T-47D breast = tested on: T-47D breast
M14 melanoma = tested on: M14 melanoma
NCI-H23 lung = tested on: NCI-H23 lung
IGROV1 ovarian = tested on: IGROV1 ovarian
SK-MEL-5 melanoma = tested on: SK-MEL-5 melanoma
CAKI-1 renal = tested on: CAKI-1 renal
EKVX NSCLC = tested on: EKVX NSCLC
A498 renal = tested on: A498 renal

Which results are given for `O=C1C(c2ccccc2)=C(N2CCc3ccccc32)OC1(Cl)Cl`?
GI50 (HCT-15 colon): 1740 nM; TGI (HCT-15 colon): 4.56 µM; GI50 (SF-295 CNS): 14.1 µM; TGI (SF-295 CNS): 32.4 µM; GI50 (SF-539 CNS): 2190 nM; TGI (SF-539 CNS): 5.17 µM; GI50 (OVCAR-3 ovarian): 1910 nM; TGI (OVCAR-3 ovarian): 3.89 µM; GI50 (OVCAR-8 ovarian): 3.58 µM; TGI (OVCAR-8 ovarian): > 100 µM; GI50 (NCI-H226 lung): 1800 nM; TGI (NCI-H226 lung): 4.27 µM; GI50 (UO-31 renal): 1440 nM; TGI (UO-31 renal): 3.07 µM; GI50 (RXF 393 renal): 1440 nM; TGI (RXF 393 renal): 2860 nM; GI50 (COLO 205 colon): 1850 nM; TGI (COLO 205 colon): 4.36 µM; GI50 (TK-10 renal): 2000 nM; TGI (TK-10 renal): 4.91 µM; GI50 (U251 CNS): 7.34 µM; TGI (U251 CNS): 21.6 µM; GI50 (ACHN renal): 2270 nM; TGI (ACHN renal): 7.14 µM; GI50 (NCI-H460 lung): 3.96 µM; TGI (NCI-H460 lung): 20.2 µM; GI50 (NCI-H522 lung): 1700 nM; TGI (NCI-H522 lung): 4.17 µM; GI50 (NCI/ADR-RES ovarian): 3.21 µM; TGI (NCI/ADR-RES ovarian): > 100 µM; GI50 (HT29 colon): 2250 nM; TGI (HT29 colon): 5.37 µM; GI50 (SNB-75 CNS): 2520 nM; TGI (SNB-75 CNS): 17.2 µM; GI50 (SK-OV-3 ovarian): 13.4 µM; TGI (SK-OV-3 ovarian): 30.9 µM; GI50 (SF-268 CNS): 3.92 µM; TGI (SF-268 CNS): 29.4 µM; GI50 (UACC-62 melanoma): 2730 nM; TGI (UACC-62 melanoma): 10.8 µM; GI50 (CCRF-CEM leukemia): 1470 nM; TGI (CCRF-CEM leukemia): 5.56 µM; GI50 (T-47D breast): 2190 nM; TGI (T-47D breast): 9.86 µM; GI50 (M14 melanoma): 1770 nM; TGI (M14 melanoma): 3.73 µM; GI50 (NCI-H23 lung): 1960 nM; TGI (NCI-H23 lung): 4.67 µM; GI50 (IGROV1 ovarian): 4.44 µM; TGI (IGROV1 ovarian): 29 µM; GI50 (SK-MEL-5 melanoma): 4.35 µM; TGI (SK-MEL-5 melanoma): 16.9 µM; GI50 (CAKI-1 renal): 1470 nM; TGI (CAKI-1 renal): 3.47 µM; GI50 (EKVX NSCLC): 2700 nM; TGI (EKVX NSCLC): 8.94 µM; GI50 (A498 renal): 3.94 µM
